Earlier results, collected in patent US20250213572A1, “TYK2 INHIBITORS AND USES THEREOF” (Takeda Pharmaceutical Company Limited, priority 2022, published 2025).

What was measured:
[1] = tested on: moderate-to-severe ulcerative colitis; details: 6 mg once-daily; cited from earlier work
psoriasis = details: dose ranges used in the Phase 3 trials; cited from earlier work
[2] = tested on: moderate-to-severe psoriasis; details: 30 mg twice-daily; at four weeks; cited from earlier work

| Compound | primary endpoint of clinical remission at 12 weeks [1] | increase of responses at 12 weeks compared to four weeks (psoriasis) | mean PASI reduction [2] [%] |
| --- | --- | --- | --- |
| deucravacitinib [reference compound] | did not achieve its primary endpoint of clinical remission at 12 weeks | three- to four-fold | – |
| guselkumab: an anti-IL-23 monoclonal antibody | – | three- to four-fold | – |
| CCOc1cc([C@@H](CS(C)(=O)=O)N2C(=O)c3cccc(NC(C)=O)c3C2=O)ccc1OC [Otezla®] | – | – | 37 |
